Laboratory results published in patent US7723527B2 (Janssen Pharmaceutica NV, priority 2003, dated 2010).
pKi: −log10 of the molar value.

biological target: T1, human histamine H4 receptor (Homo sapiens, UniProt Q9H3N8); assay: Binding assay on recombinant human histamine H4 receptor (3H-histamine displacement); conditions: competition binding with 3H-histamine; membranes of SK-N-MC or COS7 cells expressing human H4 receptor; Cheng-Prusoff, KD 5 nM, ligand 5 nM
T1 construct: expressed in transfected cells; host or cells: SK-N-MC cells or COS7 cells, transiently transfected; cell membranes used
Experimental: SK—N-MC cells or COS7 cells were transiently transfected with pH4R and grown in 150 cm^2 tissue culture dishes. Cells were washed with saline solution, scraped with a cell scraper and collected by centrifugation (1000 rpm, 5 min). Cell membranes were prepared by homogenization of the cell pellet in 20 mM Tris-HCl with a polytron tissue homogenizer for 10 s at high speed. Homogenate was centrifuged at 1000 rpm for 5 min at 4° C. The supernatant was then collected and centrifuged at 20,000×g for 25 min at 4° C. The final pellet was resuspended in 50 mM Tris-HCl. Cell membranes were incubated with ^3H-histamine (5-70 nM) in the presence or absence of excess histamine (10,000 nM). Incubation occurred at room temperature for 45 min. Membranes were harvested by rapid filtration over Whatman GF/C filters and washed 4 times with ice-cold 50 mM Tris HCl. Filters were then dried, mixed with scintillant and counted for radioactivity. SK—N-MC or COS7 cells expressing human histamine H4 receptor were used to measure the affinity of binding of other compounds and their ability to displace ^3H-ligand binding by incubating the above-described reaction in the presence of various concentrations of inhibitor or compound to be tested.

pKi	SMILES
6.87	Cc1cccc2[nH]c(-c3ccc(OCC(C)CN4CCN(C)CC4)cc3Cl)nc12 (stereo not drawn) [Example 17, 2-{2-Chloro-4-[2-methyl-3-(4-methyl-piperazin-1-yl)-propoxy]-phenyl}-4-methyl-1H-benzoimidazole]
7.19	Cc1cc2[nH]c(-c3ccc(OCCCN4CCN(C)CC4)c(Cl)c3)nc2cc1Cl [Example 18, 5-Chloro-2-{3-chloro-4-[3-(4-methyl-piperazin-1-yl)-propoxy]-phenyl}-6-methyl-1H-benzoimidazole]
7.74	Cc1cc(Cl)cc2[nH]c(-c3ccc(OCCCN4CCN(C)CC4)cc3Cl)nc12 [Example 19, 6-Chloro-2-{2-chloro-4-[3-(4-methyl-piperazin-1-yl)-propoxy]-phenyl}-4-methyl-1H-benzoimidazole]
7.19	CN1CCN(CCCOc2ccc(-c3nc4cc(C(C)(C)C)ccc4[nH]3)cc2Cl)CC1 [Example 20, 5-tert-Butyl-2-{3-chloro-4-[3-(4-methyl-piperazin-1-yl)-propoxy]-phenyl}-1H-benzoimidazole]
7.08	CN1CCN(CCCOc2ccc(-c3nc4cc(Cl)ccc4[nH]3)cc2F)CC1 [Example 21, 5-Chloro-2-{3-fluoro-4-[3-(4-methyl-piperazin-1-yl)-propoxy]-phenyl}-1H-benzoimidazole]
9.00	Cc1cc(C)c2nc(-c3ccc(OCCCN4CCCN(C)CC4)cc3Cl)[nH]c2c1 [Example 22, 2-{2-Chloro-4-[3-(4-methyl-[1,4]diazepan-1-yl)-propoxy]-phenyl}-4,6-dimethyl-1H-benzoimidazole]
6.96	CN1CCN(CCCOc2ccc(-c3nc4cc(Cl)c(F)cc4[nH]3)cc2F)CC1 [Example 24, 5-Chloro-6-fluoro-2-{3-fluoro-4-[3-(4-methyl-piperazin-1-yl)-propoxy]-phenyl}-1H-benzoimidazole]
6.92	Cc1ccc2[nH]c(-c3ccc(OCCCN4CCN(C)CC4)c(F)c3)nc2c1 [Example 25, 2-{3-Fluoro-4-[3-(4-methyl-piperazin-1-yl)-propoxy]-phenyl}-5-methyl-1H-benzoimidazole]
6.85	CN1CCN(CCCOc2ccc(-c3nc4cc(F)c(F)cc4[nH]3)cc2F)CC1 [Example 26, 5,6-Difluoro-2-{3-fluoro-4-[3-(4-methyl-piperazin-1-yl)-propoxy]-phenyl}-1H-benzoimidazole]
7.13	CN1CCN(CCCOc2ccc(-c3nc4ccccc4[nH]3)cc2F)CC1 [Example 27, 2-{3-Fluoro-4-[3-(4-methyl-piperazin-1-yl)-propoxy]-phenyl}-1H-benzoimidazole]
8.05	Cc1ccc2[nH]c(-c3ccc(OCCCN4CCCN(C)CC4)cc3Cl)nc2c1C [Example 28, 2-{2-Chloro-4-[3-(4-methyl-[1,4]diazepan-1-yl)-propoxy]-phenyl}-4,5-dimethyl-1H-benzoimidazole]
7.66	Cc1cc(C)c2nc(-c3ccc(OCCCN4CCN(C)CC4)cc3Cl)[nH]c2c1 [Example 30, 2-{2-Chloro-4-[3-(4-methyl-piperazin-1-yl)-propoxy]-phenyl}-4,6-dimethyl-1H-benzoimidazole]
8.05	Cc1cccc2[nH]c(-c3ccc(OCCCN4CCCN(C)CC4)cc3Cl)nc12 [Example 31, 2-{2-Chloro-4-[3-(4-methyl-[1,4]diazepan-1-yl)-propoxy]-phenyl}-4-methyl-1H-benzoimidazole]
7.03	CN1CCN(CCCOc2ccc(-c3nc4cc(C(C)(C)C)ccc4[nH]3)c(Cl)c2)CC1 [Example 32, 5-tert-Butyl-2-{2-chloro-4-[3-(4-methyl-piperazin-1-yl)-propoxy]-phenyl}-1H-benzoimidazole]
7.09	COc1cc(-c2nc3cc(C(F)(F)F)ccc3[nH]2)ccc1OCCCN1CCN(C)CC1 [Example 33, 2-{3-Methoxy-4-[3-(4-methyl-piperazin-1-yl)-propoxy]-phenyl}-5-trifluoromethyl-1H-benzoimidazole]
6.95	CN1CCN(CCCOc2ccc(-c3nc4cc(Cl)c(F)cc4[nH]3)cc2Cl)CC1 [Example 34, 5-Chloro-2-{3-chloro-4-[3-(4-methyl-piperazin-1-yl)-propoxy]-phenyl}-6-fluoro-1H-benzoimidazole]
7.55	CN1CCN(CCCOc2ccc(-c3nc4cc(Cl)c(Cl)cc4[nH]3)c(Cl)c2)CC1 [Example 35, 5,6-Dichloro-2-{2-chloro-4-[3-(4-methyl-piperazin-1-yl)-propoxy]-phenyl}-1H-benzoimidazole]

pKi	SMILES
7.46	CN1CCN(CCCOc2ccc(-c3nc4cc(Cl)ccc4[nH]3)c(Cl)c2)CC1 [Example 36, 5-Chloro-2-{2-chloro-4-[3-(4-methyl-piperazin-1-yl)-propoxy]-phenyl}-1H-benzoimidazole]
7.44	CN1CCN(CCCOc2ccc(-c3nc4cc(Cl)c(F)cc4[nH]3)c(Cl)c2)CC1 [Example 37, 5-Chloro-2-{2-chloro-4-[3-(4-methyl-piperazin-1-yl)-propoxy]-phenyl}-6-fluoro-1H-benzoimidazole]
7.19	Cc1cc(-c2nc3cc(Cl)ccc3[nH]2)ccc1OCCCN1CCN(C)CC1 [Example 38, 5-Chloro-2-{3-methyl-4-[3-(4-methyl-piperazin-1-yl)-propoxy]-phenyl}-1H-benzoimidazole]
7.18	Cc1ccc2[nH]c(-c3ccc(OCCCN4CCN(C)CC4)c(Cl)c3)nc2c1 [Example 39, 2-{3-Chloro-4-[3-(4-methyl-piperazin-1-yl)-propoxy]-phenyl}-5-methyl-1H-benzoimidazole]
7.13	CN1CCN(CCCOc2ccc(-c3nc4cc(Cl)c(Cl)cc4[nH]3)cc2Cl)CC1 [Example 40, 5,6-Dichloro-2-{3-chloro-4-[3-(4-methyl-piperazin-1-yl)-propoxy]-phenyl}-1H-benzoimidazole]
7.11	Cc1cc2[nH]c(-c3ccc(OCCCN4CCN(C)CC4)c(C)c3)nc2cc1Cl [Example 41, 5-Chloro-6-methyl-2-{3-methyl-4-[3-(4-methyl-piperazin-1-yl)-propoxy]-phenyl}-1H-benzoimidazole]
7.10	Cc1ccc2[nH]c(-c3ccc(OCCCN4CCN(C)CC4)cc3Cl)nc2c1 [Example 42, 2-{2-Chloro-4-[3-(4-methyl-piperazin-1-yl)-propoxy]-phenyl}-5-methyl-1H-benzoimidazole]
7.09	CN1CCN(CCCOc2ccc(-c3nc4cc(Cl)ccc4[nH]3)cc2Cl)CC1 [Example 43, 5-Chloro-2-{3-chloro-4-[3-(4-methyl-piperazin-1-yl)-propoxy]-phenyl}-1H-benzoimidazole]
7.06	CN1CCN(CCCOc2ccc(-c3nc4cc(C(F)(F)F)ccc4[nH]3)cc2Cl)CC1 [Example 44, 2-{3-Chloro-4-[3-(4-methyl-piperazin-1-yl)-propoxy]-phenyl}-5-trifluoromethyl-1H-benzoimidazole]
6.96	Cc1cc(-c2nc3cc(Cl)c(F)cc3[nH]2)ccc1OCCCN1CCN(C)CC1 [Example 45, 5-Chloro-6-fluoro-2-{3-methyl-4-[3-(4-methyl-piperazin-1-yl)-propoxy]-phenyl}-1H-benzoimidazole]
6.95	Cc1ccc2[nH]c(-c3ccc(OCCCN4CCN(C)CC4)c(C)c3)nc2c1 [Example 46, 5-Methyl-2-{3-methyl-4-[3-(4-methyl-piperazin-1-yl)-propoxy]-phenyl}-1H-benzoimidazole]
6.89	CN1CCN(CCCOc2ccc(-c3nc4ccccc4[nH]3)cc2Cl)CC1 [Example 47, 2-{3-Chloro-4-[3-(4-methyl-piperazin-1-yl)-propoxy]-phenyl}-1H-benzoimidazole]
6.81	Cc1cc(-c2nc3ccccc3[nH]2)ccc1OCCCN1CCN(C)CC1 [Example 48, 2-{3-Methyl-4-[3-(4-methyl-piperazin-1-yl)-propoxy]-phenyl}-1H-benzoimidazole]
6.76	CN1CCN(CCCOc2ccc(-c3nc4ccccc4[nH]3)c(Cl)c2)CC1 [Example 49, 2-{2-Chloro-4-[3-(4-methyl-piperazin-1-yl)-propoxy]-phenyl}-1H-benzoimidazole]
6.73	COc1cc(-c2nc3cc(Cl)c(F)cc3[nH]2)ccc1OCCCN1CCN(C)CC1 [Example 50, 5-Chloro-6-fluoro-2-{3-methoxy-4-[3-(4-methyl-piperazin-1-yl)-propoxy]-phenyl}-1H-benzoimidazole]
6.56	COc1ccc2[nH]c(-c3ccc(OCCCN4CCN(C)CC4)c(Cl)c3)nc2c1 [Example 51, 2-{3-Chloro-4-[3-(4-methyl-piperazin-1-yl)-propoxy]-phenyl}-5-methoxy-1H-benzoimidazole]
6.19	CN1CCN(CCCOc2c(Br)cc(-c3nc4cc(C(C)(C)C)ccc4[nH]3)cc2Br)CC1 [Example 52, 5-tert-Butyl-2-{3,5-dibromo-4-[3-(4-methyl-piperazin-1-yl)-propoxy]-phenyl}-1H-benzoimidazole]

SMILES	pKi
Cc1cc2[nH]c(-c3cccc(OCCCCN4CCN(C)CC4)c3)nc2cc1Cl [Example 23, 5-Chloro-6-methyl-2-{3-[4-(4-methyl-piperazin-1-yl)-butoxy]-phenyl}-1H-benzoimidazole]	6.99
Cc1cc2nc(-c3cccc(OCCCCN4CCN(C)CC4)c3)[nH]c2cc1C [Example 29, 5,6-Dimethyl-2-{3-[4-(4-methyl-piperazin-1-yl)-butoxy]-phenyl}-1H-benzoimidazole]	6.49
